Where only a bound is given, the exact number is not on record here.

The target in the experiment is PI3K delta (Homo sapiens (Human), UniProt O00329). Description: Luciferase-coupled chemiluminescence kinase assay (KinaseGlo, ATP consumption). The experiment is classed as biochemical. The method, boiled down: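 Kinase, compound and ATP (at or below KM) reacted 2 h at ambient temperature; remaining ATP detected by KinaseGlo luciferase chemiluminescence as percent ATP consumed. 10-point dose-response, curves fitted to give IC50.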
Chain of PI3K delta (O00329 whole entry): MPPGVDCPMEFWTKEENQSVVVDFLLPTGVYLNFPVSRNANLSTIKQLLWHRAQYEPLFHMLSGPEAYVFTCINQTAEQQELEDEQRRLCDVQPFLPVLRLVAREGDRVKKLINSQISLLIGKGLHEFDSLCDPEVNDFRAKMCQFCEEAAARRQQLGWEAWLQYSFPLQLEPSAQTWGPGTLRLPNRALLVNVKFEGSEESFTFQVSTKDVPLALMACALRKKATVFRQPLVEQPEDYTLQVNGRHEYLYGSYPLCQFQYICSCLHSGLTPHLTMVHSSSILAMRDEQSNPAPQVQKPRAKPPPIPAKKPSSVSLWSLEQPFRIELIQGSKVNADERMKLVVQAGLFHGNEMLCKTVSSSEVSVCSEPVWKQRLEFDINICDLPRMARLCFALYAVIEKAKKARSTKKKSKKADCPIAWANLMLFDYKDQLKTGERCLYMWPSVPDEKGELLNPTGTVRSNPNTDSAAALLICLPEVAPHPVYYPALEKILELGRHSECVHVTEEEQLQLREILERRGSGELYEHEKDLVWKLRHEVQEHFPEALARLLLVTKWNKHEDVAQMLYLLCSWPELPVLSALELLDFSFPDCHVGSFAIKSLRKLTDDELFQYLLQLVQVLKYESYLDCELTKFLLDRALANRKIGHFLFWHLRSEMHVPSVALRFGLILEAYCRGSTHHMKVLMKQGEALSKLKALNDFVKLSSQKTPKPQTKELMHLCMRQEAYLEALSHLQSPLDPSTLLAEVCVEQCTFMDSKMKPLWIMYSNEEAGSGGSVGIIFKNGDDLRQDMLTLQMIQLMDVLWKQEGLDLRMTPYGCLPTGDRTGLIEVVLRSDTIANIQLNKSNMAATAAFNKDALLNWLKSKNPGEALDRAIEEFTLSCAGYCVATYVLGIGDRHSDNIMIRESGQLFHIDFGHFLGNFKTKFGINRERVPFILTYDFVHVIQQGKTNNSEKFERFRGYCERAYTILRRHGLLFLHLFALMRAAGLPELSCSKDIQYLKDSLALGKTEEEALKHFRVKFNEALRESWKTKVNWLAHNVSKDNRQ
Chain of PI3K delta (P27986 whole entry partner): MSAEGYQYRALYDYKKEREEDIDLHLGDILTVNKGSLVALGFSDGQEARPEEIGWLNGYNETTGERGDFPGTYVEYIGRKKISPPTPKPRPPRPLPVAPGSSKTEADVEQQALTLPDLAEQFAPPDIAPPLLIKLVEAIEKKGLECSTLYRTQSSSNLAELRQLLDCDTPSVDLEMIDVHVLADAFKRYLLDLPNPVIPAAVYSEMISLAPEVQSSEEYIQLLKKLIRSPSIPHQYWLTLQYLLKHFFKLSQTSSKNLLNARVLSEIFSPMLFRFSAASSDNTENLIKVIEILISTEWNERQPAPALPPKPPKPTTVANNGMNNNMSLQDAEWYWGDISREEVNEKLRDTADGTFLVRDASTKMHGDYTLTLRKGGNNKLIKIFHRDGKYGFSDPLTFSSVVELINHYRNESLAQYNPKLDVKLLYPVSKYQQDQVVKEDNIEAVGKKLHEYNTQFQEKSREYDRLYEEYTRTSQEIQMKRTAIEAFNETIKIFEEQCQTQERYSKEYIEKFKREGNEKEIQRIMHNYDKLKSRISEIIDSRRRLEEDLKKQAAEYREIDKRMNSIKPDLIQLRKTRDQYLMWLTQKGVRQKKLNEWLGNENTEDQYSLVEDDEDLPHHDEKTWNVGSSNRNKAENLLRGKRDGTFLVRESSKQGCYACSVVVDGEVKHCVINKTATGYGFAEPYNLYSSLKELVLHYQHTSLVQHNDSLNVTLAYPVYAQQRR
For orientation: In Kinase-Glo more light means more ATP remaining.

As usually defined, the IC50 is the concentration needed to halve the response being measured. Read a high IC50 as weaker potency in that assay. Compound `Cc1cccc2cc(CNC(=O)c3nccnc3N)c(N3CCC(N(C)C)CC3)nc12` [Compound 127, 3-amino-N-({2-[4-(dimethylamino)piperidin-1-yl]-8-methylquinolin-3-yl}methyl)pyrazine-2-carboxamide] yielded an IC50 of 0.5 to 1.5 µM.
`Cc1ccccc1-n1c(CNC(=O)c2cccnc2N)nc2cccc(C)c2c1=O` [Compound 176, 2-amino-N-{[5-methyl-3-(2-methylphenyl)-4-oxo-3,4-dihydroquinazolin-2-yl]methyl}pyridine-3-carboxamide] gave an IC50 of 0.5 to 1.5 µM.
Turning to `CC(=O)N1CCN(c2nc3c(C)cccc3cc2CNc2ncnc3[nH]cnc23)CC1` [Compound 143, N-{[2-(4-acetylpiperazin-1-yl)-8-methylquinolin-3-yl]methyl}-9H-purin-6-amine], the IC50 is below 0.05 µM.
For `Cc1cccc2cc(Cn3cnc4c(N)ncnc43)c(N3CCc4ccccc4C3)nc12` [Compound 14, 9-{[2-(3,4-dihydroisoquinolin-2(1H)-yl)-8-methylquinolin-3-yl]methyl}-9H-purin-6-amine], the IC50 was 0.5 to 1.5 µM.
As to `Cc1cccc2cc(CNC(=O)c3nccnc3N)c(N3CCCN(C(=O)Cn4cnc5ccccc54)CC3)nc12` [Compound 53, 3-amino-N-({2-[4-(1H-benzimidazol-1-ylacetyl)-1,4-diazepan-1-yl]-8-methylquinolin-3-yl}methyl)pyrazine-2-carboxamide], the concentration for half-maximal inhibition (IC50) lay in the range of 0.5 to 1.5 µM.
The result for `Cc1cccc2cc(CNC(=O)c3nccnc3N)c(N(C)C3CCN(C)CC3)nc12` [Compound 99, 3-amino-N-({8-methyl-2-[methyl(1-methylpiperidin-4-yl)amino]quinolin-3-yl}methyl)pyrazine-2-carboxamide] reads 0.05 to 0.25 µM.
Then `Cc1cccc2cc(Cn3cnc4c(N)ncnc43)c(NC3CCOCC3)nc12` [Compound 165, 3-[(6-amino-9H-purin-9-yl)methyl]-8-methyl-N-(tetrahydro-2H-pyran-4-yl)quinolin-2-amine], with 0.5 to 1.5 µM; and `CN(C)Cc1ccccc1-c1cc2ccccc2nc1CNC(=O)c1nccnc1N` [Compound 92, 3-amino-N-[(3-{2-[(dimethylamino)methyl]phenyl}quinolin-2-yl)methyl]pyrazine-2-carboxamide], with 0.05 to 0.25 µM; and `Cc1ccccc1-n1c(CNC(=O)c2nc(Br)cnc2N)nc2cccc(C)c2c1=O` [Compound 160, 3-amino-6-bromo-N-{[5-methyl-3-(2-methylphenyl)-4-oxo-3,4-dihydroquinazolin-2-yl]methyl}pyrazine-2-carboxamide], with 0.5 to 1.5 µM.
`Cc1cccc2cc(CNC(=O)c3nccnc3N)c(CCCO)nc12` [Compound 50, 3-amino-N-{[2-(3-hydroxypropyl)-8-methylquinolin-3-yl]methyl}pyrazine-2-carboxamide] showed an IC50 of 0.5 to 1.5 µM.
`Cc1cccc2cc(CNC(=O)c3nccnc3N)c(N(C)CCN(C)C(=O)c3cncn3C)nc12` [Compound 110, 3-amino-N-({8-methyl-2-[methyl(2-{methyl[(1-methyl-1H-imidazol-5-yl)carbonyl]amino}ethyl)amino]quinolin-3-yl}methyl)pyrazine-2-carboxamide]: the IC50 lay within 0.05 to 0.25 µM.
Compound `Cc1ccccc1-n1c(CNC(=O)c2ccnc(N)c2)nc2cccc(C)c2c1=O` [Compound 174, 2-amino-N-{[5-methyl-3-(2-methylphenyl)-4-oxo-3,4-dihydroquinazolin-2-yl]methyl}pyridine-4-carboxamide] showed an IC50 of 0.5 to 1.5 µM.
Then `COc1cccc(CNCc2cc3cccc(C)c3nc2-c2ccccc2Cl)c1` [Compound 6, 1-[2-(2-chlorophenyl)-8-methylquinolin-3-yl]-N-{[3-(methyloxy)phenyl]methyl}methanamine], with 0.5 to 1.5 µM.
`Cc1cccc2cc(CNC(=O)c3nccnc3N)c(N(C)CCNC(=O)Cn3ccnn3)nc12` [Compound 51, 3-amino-N-{[8-methyl-2-(methyl{2-[(1H-1,2,3-triazol-1-ylacetyl)amino]ethyl}amino)quinolin-3-yl]methyl}pyrazine-2-carboxamide] gave a concentration for half-maximal inhibition (IC50) of 0.05 to 0.25 µM.
The result for `Cc1cccc2cc(Cn3cnc4c(N)ncnc43)c(N(C)CC3CCN(C)CC3)nc12` [Compound 4, 3-[(6-amino-9H-purin-9-yl)methyl]-N,8-dimethyl-N-[(1-methylpiperidin-4-yl)methyl]quinolin-2-amine] reads below 0.05 µM; that for `Cc1cccc2cc(CNC(=O)c3nccnc3N)c(N(Cc3ccccn3)Cc3ccccn3)nc12` [Compound 47, 3-amino-N-({2-[bis(pyridin-2-ylmethyl)amino]-8-methylquinolin-3-yl}methyl)pyrazine-2-carboxamide], 0.5 to 1.5 µM.
`CN(C)Cc1cccc(-c2cc3ccccc3nc2CNC(=O)c2nccnc2N)c1` [Compound 69, 3-amino-N-[(3-{3-[(dimethylamino)methyl]phenyl}quinolin-2-yl)methyl]pyrazine-2-carboxamide] had an IC50 of 0.25 to 0.5 µM.
For the compound `Cc1cccc2cc(CNc3ncnc4[nH]cnc34)c(N3CCN4CCCCC4C3)nc12` (centres unmarked) [Compound 12, N-{[8-methyl-2-(octahydro-2H-pyrido[1,2-a]pyrazin-2-yl)quinolin-3-yl]methyl}-9H-purin-6-amine], the IC50 is below 0.05 µM.
`CNCCN(C)c1nc2c(C)cccc2cc1CNC(=O)c1nccnc1N` [Compound 130, 3-amino-N-[(8-methyl-2-{methyl[2-(methylamino)ethyl]amino}quinolin-3-yl)methyl]pyrazine-2-carboxamide]: the IC50 was 0.25 to 0.5 µM.
Then `Cc1cccc2cc(CNC(=O)c3nccnc3N)c(N(C)CCN(C)C(=O)Cn3nccn3)nc12` [Compound 94, 3-amino-N-{[8-methyl-2-(methyl{2-[methyl(2H-1,2,3-triazol-2-ylacetyl)amino]ethyl}amino)quinolin-3-yl]methyl}pyrazine-2-carboxamide], with 0.05 to 0.25 µM; and `Cc1nc(C)n(CC(=O)N(C)CCN(C)c2nc3c(C)cccc3cc2CNC(=O)c2nccnc2N)n1` [Compound 43, 3-amino-N-({2-[(2-{[(3,5-dimethyl-1H-1,2,4-triazol-1-yl)acetyl](methyl)amino}ethyl)(methyl)amino]-8-methylquinolin-3-yl}methyl)pyrazine-2-carboxamide], with below 0.05 µM; and `CNCC(=O)N(C)CCN(C)c1nc2c(C)cccc2cc1CNC(=O)c1nccnc1N` [Compound 116, 3-amino-N-{[8-methyl-2-(methyl{2-[methyl(N-methylglycyl)amino]ethyl}amino)quinolin-3-yl]methyl}pyrazine-2-carboxamide], with 0.05 to 0.25 µM.
Compound `Cc1ccccc1-c1cc2ccccc2nc1CNC(=O)c1ncc(N2CCOCC2)nc1N` [Compound 105, 3-amino-N-{[3-(2-methylphenyl)quinolin-2-yl]methyl}-5-morpholin-4-ylpyrazine-2-carboxamide] returned an IC50 of 0.5 to 1.5 µM.
Regarding `Cc1cccc2cc(CNC(=O)c3nccnc3N)c(N3CCCN(C(=O)Cn4nccn4)CC3)nc12` [Compound 61, 3-amino-N-({8-methyl-2-[4-(2H-1,2,3-triazol-2-ylacetyl)-1,4-diazepan-1-yl]quinolin-3-yl}methyl)pyrazine-2-carboxamide], the IC50 was 0.5 to 1.5 µM.
As to `CC(=O)N1CCN(c2nc3ccccc3nc2Nc2cccc(C(N)=O)c2)CC1` [Compound 41, 3-{[3-(4-acetylpiperazin-1-yl)quinoxalin-2-yl]amino}benzamide], the IC50 lay in the range of 0.5 to 1.5 µM.
In turn, `Cc1cccc2cc(CNC(=O)c3nccnc3N)c(N3CCCN(CC(=O)N(C)C)CC3)nc12` [Compound 66, 3-amino-N-[(2-{4-[2-(dimethylamino)-2-oxoethyl]-1,4-diazepan-1-yl}-8-methylquinolin-3-yl)methyl]pyrazine-2-carboxamide] returned an IC50 of 0.5 to 1.5 µM.
In turn, `Cc1cccc2cc(Cn3cnc4c(N)ncnc43)c(N3CCCC3)nc12` [Compound 171, 9-[(8-methyl-2-pyrrolidin-1-ylquinolin-3-yl)methyl]-9H-purin-6-amine] came in with an IC50 of 0.05 to 0.25 µM.
The compound `Cc1cccc2cc(CNC(=O)c3nccnc3N)c(-n3ccnc3)nc12` [Compound 111, 3-amino-N-{[2-(1H-imidazol-1-yl)-8-methylquinolin-3-yl]methyl}pyrazine-2-carboxamide] gave an IC50 of 0.25 to 0.5 µM.
Regarding `Cc1cccc(-c2nc3c(C)cccc3cc2Cn2cnc3c(N)ncnc32)c1C` [Compound 180, 9-{[2-(2,3-dimethylphenyl)-8-methylquinolin-3-yl]methyl}-9H-purin-6-amine], the IC50 fell in the range of 0.5 to 1.5 µM.
The result for `Cc1cccc2cc(CNc3ncnc4[nH]cnc34)c(N(C)CC3CCN(C)CC3)nc12` [Compound 33, N,8-dimethyl-N-[(1-methylpiperidin-4-yl)methyl]-3-[(9H-purin-6-ylamino)methyl]quinolin-2-amine] reads below 0.05 µM; that for `Cc1cccc2cc(CNC(=O)c3nccnc3N)c(NCCc3cccnc3)nc12` [Compound 97, 3-amino-N-({8-methyl-2-[(2-pyridin-3-ylethyl)amino]quinolin-3-yl}methyl)pyrazine-2-carboxamide], 0.5 to 1.5 µM.
Consider `Cc1cccc2cc(CNC(=O)c3nccnc3N)c(N(C)CCN(C)C(=O)Cn3ccnn3)nc12` [Compound 100, 3-amino-N-{[8-methyl-2-(methyl{2-[methyl(1H-1,2,3-triazol-1-ylacetyl)amino]ethyl}amino)quinolin-3-yl]methyl}pyrazine-2-carboxamide], for which the IC50 was below 0.05 µM.
`Nc1nccnc1C(=O)NCc1nc2ccccc2cc1-c1ccc(CN2CCOCC2)cc1` [Compound 71, 3-amino-N-({3-[4-(morpholin-4-ylmethyl)phenyl]quinolin-2-yl}methyl)pyrazine-2-carboxamide] yielded an IC50 of 0.5 to 1.5 µM.
Then `Cc1ccccc1-n1c(CNC(=O)c2nccnc2N)nc2cccc(C)c2c1=O` [Compound 175, 3-amino-N-{[5-methyl-3-(2-methylphenyl)-4-oxo-3,4-dihydroquinazolin-2-yl]methyl}pyrazine-2-carboxamide], with below 0.05 µM; and `Cc1ccccc1-n1c(CNC(=O)c2nccnc2Cl)nc2cccc(C)c2c1=O` [Compound 159, 3-chloro-N-{[5-methyl-3-(2-methylphenyl)-4-oxo-3,4-dihydroquinazolin-2-yl]methyl}pyrazine-2-carboxamide], with 0.5 to 1.5 µM.

These data come from patent US9670212B2, “Inhibitors of PI3K-delta and methods of their use and manufacture” (Exelixis, Inc., priority 2010, dated 2017).
